The target of experiment [1] is T1, recombinant USP1 protein (Homo sapiens, UniProt O94782, DEL125-138/DEL229-408/DEL608-737).
T1 sequence (O94782 with tags, fused parts or gaps DEL125-138/DEL229-408/DEL608-737): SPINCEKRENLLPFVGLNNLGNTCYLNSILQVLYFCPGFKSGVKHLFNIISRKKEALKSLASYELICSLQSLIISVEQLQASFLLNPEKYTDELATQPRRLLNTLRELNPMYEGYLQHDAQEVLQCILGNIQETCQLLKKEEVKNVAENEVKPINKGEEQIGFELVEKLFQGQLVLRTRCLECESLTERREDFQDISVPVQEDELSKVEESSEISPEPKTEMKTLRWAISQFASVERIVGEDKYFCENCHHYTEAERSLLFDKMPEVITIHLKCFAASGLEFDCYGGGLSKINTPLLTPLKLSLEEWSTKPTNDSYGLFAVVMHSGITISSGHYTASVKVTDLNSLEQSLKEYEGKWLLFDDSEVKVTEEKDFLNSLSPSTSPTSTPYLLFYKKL
Nature of the experiment: Binding affinity to recombinant USP1 protein by differential scanning fluorimetry. Conditions: compound 100 µM; 0.03 mg/mL USP1 (Δ1-66, Δ125-138, Δ229-408, Δ608-737); Tm with compound minus Tm with DMSO; read-out: ΔTm (°C). The method in brief: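 USP1 (Δ1-66, Δ125-138, Δ229-408, Δ608-737) at 0.03 mg/mL with dye in 50 mM Tris-HCl pH 8.0, 150 mM NaCl, 2% glycerol, 1 mM DTT; compounds at 100 µM final. Tm read on real-time PCR instrument; ΔTm = Tm with compound minus Tm with DMSO.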
(DSF heats the sample and reads unfolding from a dye or from intrinsic fluorescence.)

Experiment [2] has as its system UWB1.289 cells. In words: Cell proliferation inhibitory activity in BRCA1/2-mutant or HRD-positive cells (Cell Titer-Glo). The class given is cell-based. Conditions: UWB1289; UWB1.289 cells, 144 hours after compound treatment, Cell Titer-Glo, 1.5 nM to 10 µM; read-out: GI50 UWB1.289 BRCA1 mut. In a few lines:
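UWB1.289 cells (1,000/well) in 50% MEBM/50% RPMI1640 exposed to […], final 1.5 nM to 10 µM, for 144 h at 37 °C. Viable cells measured by CellTiter-Glo luminescence; GI50 calculated.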
In general terms: ATP-based viability assays read luminescence as a measure of living cells.

As for `COc1ncnc(C2CC2)c1-c1ncc2cc(C(=O)NC3CCNC3)n(Cc3ccc(-c4nc(C(F)(F)F)cn4C(C)C)cc3)c2n1` (stereo not shown) [Example 41, 2-(4-cyclopropyl-6-methoxypyrimidin-5-yl)-7-(4-(1-isopropyl-4-(trifluoromethyl)-1H-imidazol-2-yl)benzyl)-N-(pyrrolidin-3-yl)-7H-pyrrolo[2,3-d]pyrimidine-6-carboxamide], the ΔTm (commonly the shift of the melting midpoint relative to a reference) at 100 µM in experiment [1] was > 5 °C. Further, in experiment [2], the GI50 (in general, the concentration giving 50% growth inhibition) was < 100 nM.
For the compound `CCN(CC)C(=O)c1cc2cnc(-c3c(OC)ncnc3C3CC3)nc2n1Cc1ccc(-c2nc(C(F)(F)F)cn2C(C)C)cc1` [Example 42, 2-(4-cyclopropyl-6-methoxypyrimidin-5-yl)-N,N-diethyl-7-(4-(1-isopropyl-4-(trifluoromethyl)-1H-imidazol-2-yl)benzyl)-7H-pyrrolo[2,3-d]pyrimidine-6-carboxamide], the ΔTm at 100 µM in experiment [1] was > 5 °C. Besides, the GI50 in experiment [2] lay in the range of 100 to 500 nM.
`CNC(=O)c1cc2cnc(-c3c(OC)ncnc3C3CC3)nc2n1Cc1ccc(-c2nc(C(F)(F)F)cn2C)cc1` [Example 43, 2-(4-cyclopropyl-6-methoxypyrimidin-5-yl)-N-methyl-7-(4-(1-methyl-4-(trifluoromethyl)-1H-imidazol-2-yl)benzyl)-7H-pyrrolo[2,3-d]pyrimidine-6-carboxamide]: the ΔTm at 100 µM in experiment [1] was > 5 °C. For the same compound, the GI50 in experiment [2] is < 100 nM.
`COC(=O)CNC(=O)c1cc2cnc(-c3c(OC)ncnc3C3CC3)nc2n1Cc1ccc(-c2nc(C(F)(F)F)cn2C(C)C)cc1` [Example 45, methyl (2-(4-cyclopropyl-6-methoxypyrimid in-5-yl)-7-(4-(1-isopropyl-4-(trifluoromethyl)-1H-imidazol-2-yl)benzyl)-7H-pyrrolo[2,3-d]pyrimidine-6-carbonyl)glyci nate]: in experiment [1], the ΔTm at 100 µM was > 5 °C. Further, in experiment [2], the GI50 is < 100 nM.
Consider `COc1ncnc(C2CC2)c1-c1ncc2cc(C(=O)NCCN3CCCC3)n(Cc3ccc(-c4nc(C(F)(F)F)cn4C(C)C)cc3)c2n1` [Example 47, 2-(4-cyclopropyl-6-methoxypyrimidin-5-yl)-7-(4-(1-isopropyl-4-(trifluoromethyl)-1H-imidazol-2-yl)benzyl)-N-(2-(pyrrolidin-1-yl)ethyl)-7H-pyrrolo[2,3-d]pyrimidine-6-carboxamide], for which, in experiment [1], the ΔTm at 100 µM is > 5 °C. In addition, the GI50 in experiment [2] was < 100 nM.
The like results for `COc1ncnc(C2CC2)c1-c1ncc2cc(C(=O)NC(C)C)n(Cc3ccc(-c4nc(C(F)(F)F)cn4C(C)C)cc3)c2n1` [Example 48, 2-(4-cyclopropyl-6-methoxypyrimidin-5-yl)-N-isopropyl-7-(4-(1-isopropyl-4-(trifluoromethyl)-1H-imidazol-2-yl)benzyl)-7H-pyrrolo[2,3-d]pyrimidine-6-carboxamide] were, in that order, > 5 °C and < 100 nM.
In the case of `COc1ncnc(C2CC2)c1-c1ncc2cc(C(=O)NCc3ccccc3)n(Cc3ccc(-c4nc(C(F)(F)F)cn4C(C)C)cc3)c2n1` [Example 49, N-benzyl-2-(4-cyclopropyl-6-methoxypyrimidin-5-yl)-7-(4-(1-isopropyl-4-(trifluoromethyl)-1H-imidazol-2-yl)benzyl)-7H-pyrrolo[2,3-d]pyrimidine-6-carboxamide], the ΔTm at 100 µM in experiment [1] was > 5 °C. In experiment [2], the GI50 fell in the range of 100 to 500 nM.
Taken in the same sequence, the figures for `COc1ncnc(C2CC2)c1-c1ncc2cc(C(=O)N3CC[C@H](N(C)C)C3)n(Cc3ccc(-c4nc(C(F)(F)F)cn4C(C)C)cc3)c2n1` [Example 50, (S)-(2-(4-cyclopropyl-6-methoxypyrimidin-5-yl)-7-(4-(1-isopropyl-4-(trifluoromethyl)-1H-imidazol-2-yl)benzyl)-7H-pyrrolo[2,3-d]pyrimidin-6-yl) (3-(dimethylamino)pyrrolidin-1-yl)methanone] were > 5 °C and 100 to 500 nM.

Source of the values: patent EP4806898A1, “HETEROARYL DERIVATIVE COMPOUND AND USE THEREOF” (Voronoi Inc., priority 2023, dated 2025).
